The source of these data is patent EP0454444A1, “Glutarimide derivatives and herbicides” (NISSAN CHEMICAL INDUSTRIES LTD., priority 1990, dated 1991).

Holding throughout (assay): Herbicidal effect test by soil treatment
What all share (format): in vivo

The subject of series [1] is rorippa ssp. (Rorippa atrovirens). Particulars: three weeks after spraying. An excerpt:
(§1) In a plastic box of 15 cm length, 22 cm width and 6 cm depth, there was placed a sterilized dilvial soil, and seeds of barnyardgrass (Echinochloa crusgalli), large crabgrass (Digitaria adscendens), annual sedge (Cyperus microiria), black nightshade (Solanum nigrum L.), hairly galinosoga (Galinsoga ciliat), rorippa ssp. (Rorippa atrovirens), rice (Oryza sativa), corn (Zea mays), wheat (Triticum aestivum), soybean (Glysine max) and cotton (Gossypium herbaceum) were sown mixedly. After covering soil to about 1 cm over the seeds, herbicides were sprayed evenly on the soil surface to predetermined proportions of the active ingredient In spraying, the wettable powder, emulsifiable concentrate, dry flowable or flowable in the above formulation examples were diluted with water and sprayed over the entire surface by means of a small sprayer. Three weeks after spraying, the herbicidal effect on crop plants including rice, corn, wheat, soybean, cotton and various kinds of weeds were examined according to the judgement criteria shown below. Judgement criteria
(§2) The above growth control rates are determined by measuring the top fresh weights of the treated plants and those of the non-treated plants, and culculated from the following formula: [formula]

Series [2] has as its system large crabgrass (Digitaria adscendens). Particulars: three weeks after spraying.
Excerpt: as §1, §2

Series [3] deals with hairly galinosoga (Galinsoga ciliat). The following applies: three weeks after spraying.
Excerpt: as §1, §2

Series [4] relates to annual sedge (Cyperus microiria). The following applies: three weeks after spraying.
Excerpt: as §1, §2

Another series concerns corn (Zea mays). The following applies: crop plant, three weeks after spraying.
Excerpt: as §1, §2

The test system of a further series is rice (Oryza sativa). Particulars: crop plant, three weeks after spraying.
Excerpt: as §1, §2

Series [5] deals with barnyardgrass (Echinochloa crusgalli). The following applies: three weeks after spraying.
Excerpt: as §1, §2

Series [6] has as its system black nightshade (Solanum nigrum L.). Particulars: three weeks after spraying.
Excerpt: as §1, §2

The test system of series [7] is cotton (Gossypium herbaceum). Particulars: crop plant, three weeks after spraying.
Excerpt: as §1, §2

A further series deals with soybean (Glysine max). Particulars: crop plant, three weeks after spraying.
Excerpt: as §1, §2

Series [8] concerns wheat (Triticum aestivum). Particulars: crop plant, three weeks after spraying.
Excerpt: as §1, §2

On to `C#CCN1C(=O)COc2cc(F)c(N3C(=O)CC(C(F)(F)F)CC3=O)cc21` [1-26], for which the “herbicidal effect, I (Rorippa indica)” value in series [1] (application amount 0.4 g/a), in series [1] (application amount 0.8 g/a) and in series [1] (application amount 1.6 g/a) was 5 (Growth control,rates of more than 90% (almost completely withered)) in each case. Also, the “herbicidal effect, M (Digitaria adscendens)” value (from here on “herbicidal effect, M”) in series [2] (application amount 0.4 g/a), in series [2] (application amount 0.8 g/a) and in series [2] (application amount 1.6 g/a) was 5 (Growth control,rates of more than 90% (almost completely withered)) each time. Further, the “herbicidal effect, D (Galinsoga ciliat)” value in series [3] (application amount 0.4 g/a), in [3] (application amount 0.8 g/a) and in series [3] (application amount 1.6 g/a) was 5 (Growth control,rates of more than 90% (almost completely withered)) each time. For the same compound, the “herbicidal effect, K (Cyperus microiria)” value in series [4] (application amount 0.4 g/a), in series [4] (application amount 0.8 g/a) and in [4] (application amount 1.6 g/a) was 5 (Growth control,rates of more than 90% (almost completely withered)) in each case. The “herbicidal effect, T (Zea mays)” value was 4 (Growth control rates of 70 to 90%) in the series on corn (Zea mays) (application amount 0.4 g/a), 5 (Growth control,rates of more than 90% (almost completely withered)) with corn (Zea mays) (application amount 0.8 g/a) and 5 (Growth control,rates of more than 90% (almost completely withered)) in the series with corn (Zea mays) (application amount 1.6 g/a). For the same compound, the “herbicidal effect, R (Oryza sativa)” value in the series on rice (Oryza sativa) (application amount 0.4 g/a), in the series on rice (Oryza sativa) (application amount 0.8 g/a) and in the series on rice (Oryza sativa) (application amount 1.6 g/a) was 5 (Growth control,rates of more than 90% (almost completely withered)) each time. Besides, the “herbicidal effect, N (Echinochloa crusgalli)” value (shortened to “herbicidal effect, N”) in series [5] (application amount 0.4 g/a), in series [5] (application amount 0.8 g/a) and in series [5] (application amount 1.6 g/a) was 5 (Growth control,rates of more than 90% (almost completely withered)) each time. Also, the “herbicidal effect, H (Solanum nigrum L.)” value in series [6] (application amount 0.4 g/a), in series [6] (application amount 0.8 g/a) and in [6] (application amount 1.6 g/a) was 5 (Growth control,rates of more than 90% (almost completely withered)) each time. Further, the “herbicidal effect, C (Gossypium herbaceum)” value (“herbicidal effect, C” for short) in [7] (application amount 0.4 g/a), in [7] (application amount 0.8 g/a) and in series [7] (application amount 1.6 g/a) was 5 (Growth control,rates of more than 90% (almost completely withered)) throughout. Moreover, the “herbicidal effect, S (Glysine max)” value in the series with soybean (Glysine max) (application amount 0.4 g/a) is on record as 0 (Growth control rates of less than 5% (substantially no effect)); in the series with soybean (Glysine max) (application amount 0.8 g/a), 2 (Growth control rates of 20 to 40%); in the series with soybean (Glysine max) (application amount 1.6 g/a) it was 4 (Growth control rates of 70 to 90%). For the same compound, the “herbicidal effect, W (Triticum vulgare)” value was 4 (Growth control rates of 70 to 90%) in [8] (application amount 0.4 g/a), 5 (Growth control,rates of more than 90% (almost completely withered)) in [8] (application amount 0.8 g/a) and 5 (Growth control,rates of more than 90% (almost completely withered)) in series [8] (application amount 1.6 g/a).

Regarding `CCS(=O)(=O)Nc1cc(N2C(=O)CC(C(F)(F)F)CC2=O)c(F)cc1Cl` [1-15], the “herbicidal effect, I (Rorippa indica)” value in series [1] (application amount 1.6 g/a) is on record as 5 (Growth control,rates of more than 90% (almost completely withered)). Besides, the “herbicidal effect, M” value in series [2] (application amount 1.6 g/a) was 5 (Growth control,rates of more than 90% (almost completely withered)). The “herbicidal effect, D (Galinsoga ciliat)” value in series [3] (application amount 1.6 g/a) was 5 (Growth control,rates of more than 90% (almost completely withered)). For the same compound, the “herbicidal effect, K (Cyperus microiria)” value in series [4] (application amount 1.6 g/a) was 5 (Growth control,rates of more than 90% (almost completely withered)). Moreover, the “herbicidal effect, T (Zea mays)” value in the series with corn (Zea mays) (application amount 1.6 g/a) is given as 0 (Growth control rates of less than 5% (substantially no effect)). Besides, in the series on rice (Oryza sativa) (application amount 1.6 g/a), the “herbicidal effect, R (Oryza sativa)” value is reported as 0 (Growth control rates of less than 5% (substantially no effect)). The “herbicidal effect, N” value in series [5] (application amount 1.6 g/a) is 3 (Growth control rates of 40 to 70%). Moreover, the “herbicidal effect, H (Solanum nigrum L.)” value in [6] (application amount 1.6 g/a) is given as 5 (Growth control,rates of more than 90% (almost completely withered)). Also, the “herbicidal effect, C” value in [7] (application amount 1.6 g/a) is given as 0 (Growth control rates of less than 5% (substantially no effect)). Further, the “herbicidal effect, S (Glysine max)” value in the series with soybean (Glysine max) (application amount 1.6 g/a) is 0 (Growth control rates of less than 5% (substantially no effect)). For the same compound, in series [8] (application amount 1.6 g/a), the “herbicidal effect, W (Triticum vulgare)” value is given as 0 (Growth control rates of less than 5% (substantially no effect)).

As to `CCOC(=O)c1cc(N2C(=O)CCC(C)C2=O)c(F)cc1Cl` (stereo not drawn) [1-12], in [1] (application amount 6.3 g/a), the “herbicidal effect, I (Rorippa indica)” value was 5 (Growth control,rates of more than 90% (almost completely withered)). In addition, the “herbicidal effect, M” value in series [2] (application amount 6.3 g/a) was 5 (Growth control,rates of more than 90% (almost completely withered)). The “herbicidal effect, D (Galinsoga ciliat)” value in series [3] (application amount 6.3 g/a) is listed as 4 (Growth control rates of 70 to 90%). Also, the “herbicidal effect, K (Cyperus microiria)” value in series [4] (application amount 6.3 g/a) is 5 (Growth control,rates of more than 90% (almost completely withered)). In the series on corn (Zea mays) (application amount 6.3 g/a), the “herbicidal effect, T (Zea mays)” value is 0 (Growth control rates of less than 5% (substantially no effect)). The “herbicidal effect, R (Oryza sativa)” value in the series on rice (Oryza sativa) (application amount 6.3 g/a) is 2 (Growth control rates of 20 to 40%). Further, the “herbicidal effect, N” value in [5] (application amount 6.3 g/a) is reported as 2 (Growth control rates of 20 to 40%). Besides, the “herbicidal effect, H (Solanum nigrum L.)” value in [6] (application amount 6.3 g/a) is listed as 2 (Growth control rates of 20 to 40%). The “herbicidal effect, C” value in series [7] (application amount 6.3 g/a) was 0 (Growth control rates of less than 5% (substantially no effect)). The “herbicidal effect, S (Glysine max)” value in the series with soybean (Glysine max) (application amount 6.3 g/a) is listed as 0 (Growth control rates of less than 5% (substantially no effect)). Further, the “herbicidal effect, W (Triticum vulgare)” value in series [8] (application amount 6.3 g/a) is given as 1 (Growth control rates of 5 to 20%).

Take `O=C1CC(C(F)(F)F)CC(=O)N1Cc1ccc(Cl)cc1` [1-31]: the “herbicidal effect, I (Rorippa indica)” value in series [1] (application amount 6.3 g/a) is listed as 5 (Growth control,rates of more than 90% (almost completely withered)). For the same compound, in series [2] (application amount 6.3 g/a), the “herbicidal effect, M” value is given as 4 (Growth control rates of 70 to 90%). Besides, the “herbicidal effect, D (Galinsoga ciliat)” value in series [3] (application amount 6.3 g/a) is 5 (Growth control,rates of more than 90% (almost completely withered)). Moreover, the “herbicidal effect, K (Cyperus microiria)” value in series [4] (application amount 6.3 g/a) is recorded as 5 (Growth control,rates of more than 90% (almost completely withered)). In addition, the “herbicidal effect, T (Zea mays)” value with corn (Zea mays) (application amount 6.3 g/a) is reported as 0 (Growth control rates of less than 5% (substantially no effect)). Moreover, the “herbicidal effect, R (Oryza sativa)” value in the series with rice (Oryza sativa) (application amount 6.3 g/a) is listed as 0 (Growth control rates of less than 5% (substantially no effect)). Besides, in [5] (application amount 6.3 g/a), the “herbicidal effect, N” value is 4 (Growth control rates of 70 to 90%). In series [6] (application amount 6.3 g/a), the “herbicidal effect, H (Solanum nigrum L.)” value is recorded as 5 (Growth control,rates of more than 90% (almost completely withered)). Also, the “herbicidal effect, C” value in series [7] (application amount 6.3 g/a) is recorded as 0 (Growth control rates of less than 5% (substantially no effect)). Further, the “herbicidal effect, S (Glysine max)” value in the series on soybean (Glysine max) (application amount 6.3 g/a) is 0 (Growth control rates of less than 5% (substantially no effect)). Besides, the “herbicidal effect, W (Triticum vulgare)” value in series [8] (application amount 6.3 g/a) is reported as 0 (Growth control rates of less than 5% (substantially no effect)).
